Assays:
Lymphocyte = experiment: Genotoxicity in human peripheral lymphocytes assessed as non clastogenic by chromosomal aberration assay; format: toxicity, cell-based
[1] = Metabolic stability in human liver microsomes assessed as compound metabolism incubated for 30 mins in presence of NADPH by LC-MS/MS analysis; format: ADME, Microsome; details: read-out: Drug metabolism
[2] = target: T1, Solute carrier family 22 member 1 (Homo sapiens, UniProt O15245); experiment: Inhibition of OCT1 (unknown origin)
T1 sequence (O15245 whole entry): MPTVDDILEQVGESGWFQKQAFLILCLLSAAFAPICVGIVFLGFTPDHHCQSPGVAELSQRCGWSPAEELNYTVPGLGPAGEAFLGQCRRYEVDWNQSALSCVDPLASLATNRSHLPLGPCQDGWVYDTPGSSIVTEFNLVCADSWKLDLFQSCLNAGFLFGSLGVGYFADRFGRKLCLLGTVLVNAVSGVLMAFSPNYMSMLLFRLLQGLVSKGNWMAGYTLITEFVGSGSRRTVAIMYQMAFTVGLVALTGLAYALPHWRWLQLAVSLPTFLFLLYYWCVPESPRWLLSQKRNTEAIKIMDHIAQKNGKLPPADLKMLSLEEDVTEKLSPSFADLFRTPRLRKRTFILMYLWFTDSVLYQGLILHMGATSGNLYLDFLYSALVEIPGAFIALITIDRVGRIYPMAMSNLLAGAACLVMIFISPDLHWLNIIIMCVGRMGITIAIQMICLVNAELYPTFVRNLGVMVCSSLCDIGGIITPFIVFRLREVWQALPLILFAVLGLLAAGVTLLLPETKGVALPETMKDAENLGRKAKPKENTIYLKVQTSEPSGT

[3] = target: T2, Neuronal acetylcholine receptor; alpha4/beta2 (Homo sapiens, UniProt P17787+P43681); experiment: Antagonist activity at alpha4beta2 nAChR (unknown origin) expressed in HEK293 cells assessed as reduction in acetylcholine-induced currents at -80 mV holding potential by whole-cell patch clamp method; format: cell-based
T2 sequence (P17787 whole entry): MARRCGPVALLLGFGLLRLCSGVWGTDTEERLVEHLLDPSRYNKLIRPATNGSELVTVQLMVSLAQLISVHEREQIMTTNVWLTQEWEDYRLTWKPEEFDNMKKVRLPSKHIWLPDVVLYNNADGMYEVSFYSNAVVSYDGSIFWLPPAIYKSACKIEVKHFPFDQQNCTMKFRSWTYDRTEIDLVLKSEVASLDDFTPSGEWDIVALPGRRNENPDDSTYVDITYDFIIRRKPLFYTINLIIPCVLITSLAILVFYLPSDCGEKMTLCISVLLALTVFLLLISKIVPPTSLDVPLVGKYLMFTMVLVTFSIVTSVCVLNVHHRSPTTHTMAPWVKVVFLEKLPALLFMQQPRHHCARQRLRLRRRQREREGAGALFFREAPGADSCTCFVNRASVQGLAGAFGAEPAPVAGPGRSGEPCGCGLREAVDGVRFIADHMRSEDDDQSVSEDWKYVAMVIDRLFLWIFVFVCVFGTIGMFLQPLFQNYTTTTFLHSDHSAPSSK
T2 sequence (P43681 whole entry): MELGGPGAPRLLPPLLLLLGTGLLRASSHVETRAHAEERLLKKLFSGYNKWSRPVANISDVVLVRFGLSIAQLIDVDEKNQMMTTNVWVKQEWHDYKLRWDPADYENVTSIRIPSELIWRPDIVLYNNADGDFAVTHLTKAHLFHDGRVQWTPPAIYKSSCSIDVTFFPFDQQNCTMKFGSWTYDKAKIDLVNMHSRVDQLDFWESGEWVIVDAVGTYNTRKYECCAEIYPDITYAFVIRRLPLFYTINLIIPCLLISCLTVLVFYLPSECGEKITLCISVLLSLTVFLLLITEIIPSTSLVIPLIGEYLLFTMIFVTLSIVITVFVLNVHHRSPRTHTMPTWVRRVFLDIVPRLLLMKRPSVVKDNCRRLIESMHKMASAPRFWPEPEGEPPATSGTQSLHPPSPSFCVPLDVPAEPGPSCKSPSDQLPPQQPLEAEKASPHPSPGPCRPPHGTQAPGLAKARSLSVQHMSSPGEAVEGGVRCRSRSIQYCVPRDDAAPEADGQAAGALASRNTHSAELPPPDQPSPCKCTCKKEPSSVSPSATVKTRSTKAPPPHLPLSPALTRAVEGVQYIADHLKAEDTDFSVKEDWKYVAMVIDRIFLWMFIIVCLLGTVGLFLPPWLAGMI

[4] = Genotoxicity in Salmonella typhimurium TA1535 in absence of metabolic activation; format: toxicity; details: salmonella enterica subsp. enterica serovar typhimurium
[5] = target: Neuronal acetylcholine receptor; alpha4/beta2 (Rattus norvegicus) (UniProt P09483+P12390); experiment: In vivo receptor occupancy at alpha4beta2 nAChR in Wistar rat pretreated for 15 mins followed by non radiolabelled ZW-104 tracer treatment and measured after 45 mins by LC-MS/MS analysis; format: functional, organism-based
[6] = Metabolic stability in rat liver microsomes assessed as compound metabolism incubated for 30 mins in presence of NADPH by LC-MS/MS analysis; format: ADME, Microsome; details: read-out: Drug metabolism
[7] = Half life in Wistar rat at 10 ml/kg, po or 2 ml/kg, iv measured upto 24 hrs by LC-MS/MS analysis; format: ADME, organism-based; details: in vivo
[8] = target: T2, Neuronal acetylcholine receptor; alpha4/beta2; experiment: Displacement of [3H]cytisine from human alpha4beta2 nAChR expressed in CHOK1 cell membrane by microbeta scintillation counting method; format: cell membranes, CHO-K1
[9] = Genotoxicity in Salmonella typhimurium TA98 in absence of metabolic activation; format: toxicity; details: salmonella enterica subsp. enterica serovar typhimurium
[10] = Tmax in Beagle dog at 3 mg/kg, po by LC-MS/MS analysis; format: ADME, organism-based, Canis lupus familiaris; details: in vivo
[11] = Protein binding in human plasma assessed as unbound fraction at […] incubated for 6 hrs by LC-MS/MS analysis; format: ADME, cell-free
[12] = target: T3, Solute carrier family 22 member 6 (Homo sapiens, UniProt Q4U2R8); experiment: Inhibition of OAT1 (unknown origin)
T3 sequence (Q4U2R8 whole entry): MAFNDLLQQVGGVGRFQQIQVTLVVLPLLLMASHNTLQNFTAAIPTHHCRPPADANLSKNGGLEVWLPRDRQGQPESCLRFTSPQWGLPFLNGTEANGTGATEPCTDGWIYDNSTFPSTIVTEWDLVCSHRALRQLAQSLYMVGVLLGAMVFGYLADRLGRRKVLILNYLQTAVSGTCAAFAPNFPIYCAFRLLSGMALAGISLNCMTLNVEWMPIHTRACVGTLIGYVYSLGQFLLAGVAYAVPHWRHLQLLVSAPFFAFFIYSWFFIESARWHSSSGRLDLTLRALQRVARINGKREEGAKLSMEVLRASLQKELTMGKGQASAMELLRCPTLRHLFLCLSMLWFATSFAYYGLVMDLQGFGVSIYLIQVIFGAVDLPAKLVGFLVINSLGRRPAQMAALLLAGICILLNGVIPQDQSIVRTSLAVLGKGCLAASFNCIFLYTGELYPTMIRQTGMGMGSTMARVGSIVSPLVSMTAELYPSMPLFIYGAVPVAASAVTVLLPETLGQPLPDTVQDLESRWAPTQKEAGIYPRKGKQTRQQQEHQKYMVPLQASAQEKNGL

[13] = target: T4, Organic anion transporter 3 (Homo sapiens, UniProt Q8TCC7); experiment: Inhibition of OAT3 (unknown origin)
T4 sequence (Q8TCC7 whole entry): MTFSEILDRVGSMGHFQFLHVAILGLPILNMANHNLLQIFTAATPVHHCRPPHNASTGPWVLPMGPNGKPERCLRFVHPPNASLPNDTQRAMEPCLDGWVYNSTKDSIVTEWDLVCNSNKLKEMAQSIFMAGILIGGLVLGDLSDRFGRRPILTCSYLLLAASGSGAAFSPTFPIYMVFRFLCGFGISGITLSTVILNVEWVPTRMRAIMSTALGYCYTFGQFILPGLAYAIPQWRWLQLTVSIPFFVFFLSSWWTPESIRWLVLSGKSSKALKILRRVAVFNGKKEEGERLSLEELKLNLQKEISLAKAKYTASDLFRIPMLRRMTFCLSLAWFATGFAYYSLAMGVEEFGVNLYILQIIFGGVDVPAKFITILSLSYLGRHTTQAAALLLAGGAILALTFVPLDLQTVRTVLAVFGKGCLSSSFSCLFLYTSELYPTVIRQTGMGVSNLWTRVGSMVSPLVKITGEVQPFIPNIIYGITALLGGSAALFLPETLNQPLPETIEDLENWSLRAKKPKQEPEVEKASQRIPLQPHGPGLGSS

[14] = Genotoxicity in Salmonella typhimurium TA1535 in presence of metabolic activation; format: toxicity; details: salmonella enterica subsp. enterica serovar typhimurium
Cytochrome P450 2B6 = target: T5, Cytochrome P450 2B6 (Homo sapiens, UniProt P20813); experiment: Induction of CYP2B6 (unknown origin); format: ADME
T5 sequence (P20813 whole entry): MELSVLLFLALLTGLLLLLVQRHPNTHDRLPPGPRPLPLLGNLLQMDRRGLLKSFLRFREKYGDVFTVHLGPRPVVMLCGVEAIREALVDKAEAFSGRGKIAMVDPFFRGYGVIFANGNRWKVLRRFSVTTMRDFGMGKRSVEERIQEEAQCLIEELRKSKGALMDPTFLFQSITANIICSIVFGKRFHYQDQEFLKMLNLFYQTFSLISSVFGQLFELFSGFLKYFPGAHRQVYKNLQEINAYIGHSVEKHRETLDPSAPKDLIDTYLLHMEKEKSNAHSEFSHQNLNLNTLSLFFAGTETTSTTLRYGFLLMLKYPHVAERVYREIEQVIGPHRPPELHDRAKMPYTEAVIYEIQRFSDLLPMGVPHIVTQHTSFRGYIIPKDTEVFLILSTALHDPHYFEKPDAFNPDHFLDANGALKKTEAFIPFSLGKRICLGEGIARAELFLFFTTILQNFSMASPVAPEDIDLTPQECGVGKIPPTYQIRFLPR

With `Cl.Clc1ccc(OC[C@@H]2C[C@H]3C[C@H]3N2)cn1` the Activity (Lymphocyte) was “Non-Toxic”, the metabolised at 0.5 h [1] was 33.4% and the “inhibition (INH)” value [2] was “Not Active”. For the same compound, the IC50 [3] was 7310 nM, the Activity [4] was “Non-Toxic” and the Activity [5] was “Dose-dependent effect”. For the same compound, the ED50 [5] was 1610 nM, the metabolised at 0.5 h [6] was 32.2% and the half-life [7] was 3.34 h. The Ki [8] was 1.5 nM, the Activity [9] was “Non-Toxic” and the Tmax [10] was 0.3 h. The fraction unbound at 6 h [11] was 0.21, the “inhibition (INH)” value [12] was “Not Active” and the “inhibition (INH)” value [13] was “Not Active”. The Activity [14] was “Non-Toxic” and the Activity (Cytochrome P450 2B6) was “Not Active”.

From ChEMBL document CHEMBL4602676, “Discovery and Development of 3-(6-Chloropyridine-3-yloxymethyl)-2-azabicyclo[3.1.0]hexane Hydrochloride (SUVN-911): A Novel, Potent, Selective, and Orally Active Neuronal Nicotinic Acetylcholine α4β2 Receptor Antagonist for the Treatment of Depression” (J Med Chem, 2020)
